From ChEMBL document CHEMBL3124856, “Design, synthesis, and pharmacological evaluation of a novel series of pyridopyrazine-1,6-dione γ-secretase modulators” (J Med Chem, 2014) come the findings set out here.

A short description of data set [1]: Apparent intrinsic clearance in human liver microsomes. Type of data set: ADME. As to conditions: read-out: CLH(app). (Liver microsomes are vesicles of endoplasmic reticulum, rich in cytochrome P450 enzymes.)
Data set [2] in a line: Apparent intrinsic clearance in rat liver microsomes. Type of data set: ADME. As to conditions: read-out: CLH(app).
Data set [3] has as its target Gamma-secretase. The data set can be described thus: Modulation of gamma-secretase (unknown origin) expressed in CHO cells overexpressing human wild type APP assessed as reduction of amyloid beta 42 level after 24 hrs by ELISA. Type of data set: cell-based.
Data set [4] deals with MDR1 (human). The data set can be described thus: Efflux ratio of permeability in MDCK cells expressing human MDR1. Type of data set: ADME, cell-based, Canis lupus familiaris. As to conditions: dog.
Data set [5] in a line: Bioavailability in rat at 1 mg/kg, iv and 5 mg/kg, po. It is filed as ADME, organism-based. The conditions noted are these: in vivo.

A value given as a limit tells only on which side of the number the result lay.

For the compound `Cc1cn(-c2ccc3n(c2=O)CCN(CCOc2ccc(C(F)(F)F)cc2)C3=O)cn1`, the CLint scaled in data set [1] is below 9.7 mL/min/kg; in data set [2], 40.3 mL/min/kg. Besides, the half-inhibitory concentration (IC50) (usually the concentration needed to halve the response being measured) in data set [3] came to 1270 nM. Also, the efflux ratio (usually a quotient of directional permeabilities that is used to spot active efflux) in data set [4] was 1.5.

Take `Cc1cn(-c2ccc3n(c2=O)CCN(CCOc2ccccc2C(F)(F)F)C3=O)cn1`: the CLint scaled is 12.7 mL/min/kg in data set [1] and 97 mL/min/kg in data set [2]. Also, in data set [5], the bioavailability (commonly the share of a dose that reaches the circulation, judged against a reference dose that is usually intravenous) stood at 23%. Also, in data set [3], the IC50 came to 311 nM. Besides, the efflux ratio in data set [4] was determined as 1.5.

For the compound `Cc1cn(-c2ccc3n(c2=O)CCN(CCOc2cccc(C(F)(F)F)c2)C3=O)cn1`, the CLint scaled in data set [1] is below 8 mL/min/kg; in data set [2], 79.4 mL/min/kg. For the same compound, the IC50 in data set [3] turned out to be 530 nM. The efflux ratio in data set [4] stood at 1.2.

Regarding `Cc1cn(-c2ccc3c(=O)n(Cc4cccc(C(F)(F)F)c4)ccc3c2O)cn1`, the CLint scaled in data set [1] came to 12.3 mL/min/kg. The IC50 in data set [3] amounted to 920 nM. The efflux ratio in data set [4] came out at 1.1.

As for `Cc1cn(-c2ccc3n(c2=O)CCN(Cc2cccc(C(F)(F)F)c2)C3=O)cn1`, the CLint scaled in data set [1] was below 8 mL/min/kg; in data set [2] it was below 25.4 mL/min/kg. Also, the IC50 in data set [3] worked out at 1630 nM. Also, the efflux ratio in data set [4] is 1.5.

For the compound `COc1cc(C(=O)NCc2cccc(C(F)(F)F)c2)ccc1-n1cnc(C)c1`, in data set [1], the CLint scaled came to 27.8 mL/min/kg. For the same compound, the concentration for half-maximal inhibition (IC50) in data set [3] was 660 nM.

Consider `COc1c(-n2cnc(C)c2)ccc2c(=O)n(CCc3cccc(Cl)c3)ccc12`, for which the CLint scaled in data set [1] was found to be 36.1 mL/min/kg. Also, the IC50 in data set [3] is 3400 nM. Also, the efflux ratio in data set [4] is 1.2.

Take `Cc1cn(-c2ccc3n(c2=O)CCN(CCOc2cccc4ccc(F)cc24)C3=O)cn1`: the figures for the CLint scaled in data set [1] and in data set [2] were 30 mL/min/kg and 469 mL/min/kg, respectively. The IC50 in data set [3] is 15 nM. For the same compound, the efflux ratio in data set [4] came out at 1.5.

As to `Cc1cn(-c2ccc3n(c2=O)CCN(CCOc2ccccc2Cl)C3=O)cn1`, the figures for the CLint scaled in data set [1] and in data set [2] were below 10.4 mL/min/kg and 117 mL/min/kg, respectively. In data set [3], the IC50 came to 1500 nM. The efflux ratio in data set [4] amounted to 1.5.

As for `COc1cc2c(=O)n(CCc3cccc(Cl)c3)ccc2cc1-n1cnc(C)c1`, in data set [1], the CLint scaled came out at 32.7 mL/min/kg. In addition, the IC50 in data set [3] was above 15800 nM. For the same compound, in data set [4], the efflux ratio is 1.
